Results taken from PubChem BioAssay AID248 (DTP/NCI, 2004).
Where “and” joins values, the source holds several entries; their conditions need not be identical. Equal entries are not always repeated. Inconclusive results and toxic doses are left out. Cut-off read from the data, not from the text of the source: active = T/C of 150% or more; inactive = T/C below 125%.

Test system: L1210 leukemia ip in BDF1 mice, survival T/C
Test: NCI In Vivo Anticancer Drug Screen. Data for tumor model L1210 Leukemia (intraperitoneal) in B6D2F1 (BDF1) mice
Settings: endpoint: mean survival time, higher = longer survival
Summary of the method: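 Transplanted-tumor mice were given test agent; controls received vehicle only. Survival readings from the two groups were divided (treated over control).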

[1] = dose: 100.0 mg/kg/injection, schedule: Q01DX009 (ip), vehicle: saline with Tween-80
[2] = dose: 100.0 mg/kg/injection, schedule: Q04DX003 (ip), vehicle: saline with Tween-80
[3] = dose: 200.0 mg/kg/injection, schedule: Q01DX009 (ip), vehicle: saline with Tween-80
[4] = dose: 200.0 mg/kg/injection, schedule: Q04DX003 (ip), vehicle: saline with Tween-80
[5] = dose: 400.0 mg/kg/injection, schedule: Q01DX009 (ip), vehicle: saline with Tween-80
[6] = dose: 400.0 mg/kg/injection, schedule: Q04DX003 (ip), vehicle: saline with Tween-80
[7] = dose: 100.0 mg/kg/injection, schedule: Q01DX009 (ip), vehicle: saline
[8] = dose: 100.0 mg/kg/injection, schedule: Q04DX003 (ip), vehicle: saline
[9] = dose: 200.0 mg/kg/injection, schedule: Q01DX009 (ip), vehicle: saline
[10] = dose: 200.0 mg/kg/injection, schedule: Q04DX003 (ip), vehicle: saline
[11] = dose: 400.0 mg/kg/injection, schedule: Q01DX009 (ip), vehicle: saline
[12] = dose: 400.0 mg/kg/injection, schedule: Q04DX003 (ip), vehicle: saline
[13] = dose: 50.0 mg/kg/injection, schedule: Q04DX003 (ip), vehicle: saline with Tween-80
[14] = dose: 100.0 mg/kg/injection, schedule: Q01DX009 (ip), vehicle: Klucel (hydroxypropylcellulose) (HPC)
[15] = dose: 200.0 mg/kg/injection, schedule: Q01DX009 (ip), vehicle: Klucel (hydroxypropylcellulose) (HPC)
[16] = dose: 100.0 mg/kg/injection, schedule: Q04DX002 (ip), vehicle: Klucel (hydroxypropylcellulose) (HPC)
[17] = dose: 200.0 mg/kg/injection, schedule: Q04DX002 (ip), vehicle: Klucel (hydroxypropylcellulose) (HPC)
[18] = dose: 400.0 mg/kg/injection, schedule: Q04DX002 (ip), vehicle: Klucel (hydroxypropylcellulose) (HPC)
[19] = dose: 6.25 mg/kg/injection, schedule: Q01DX009 (ip), vehicle: saline with Tween-80
[20] = dose: 12.5 mg/kg/injection, schedule: Q01DX009 (ip), vehicle: saline with Tween-80
[21] = dose: 100.0 mg/kg/injection, schedule: Q04DX003 (ip), vehicle: Klucel (hydroxypropylcellulose) (HPC)
[22] = dose: 200.0 mg/kg/injection, schedule: Q04DX003 (ip), vehicle: Klucel (hydroxypropylcellulose) (HPC)
[23] = dose: 400.0 mg/kg/injection, schedule: Q04DX003 (ip), vehicle: Klucel (hydroxypropylcellulose) (HPC)

Measured: T/C

CCOC(=O)C1C2OC(=O)C(C(=O)C2N=Nc2ccc(-c3ccc(N=NC4C(=O)C5C(=O)OC4C(C(=O)OCC)C5C4CC=CCC4)cc3)cc2)C1C1CC=CCC1 (configuration not stated)
inactive: dose: 100.0 mg/kg/injection, schedule: Q01DX001 (ip), vehicle: other 86 % of control | [1] 108 % of control | [2] 100 % of control | dose: 200.0 mg/kg/injection, schedule: Q01DX001 (ip), vehicle: other 86 % of control | [3] 104 % of control | [4] 100 % of control | [5] 102 % of control | [6] 100 % of control

CN(C)/C=C(/C#N)C(=O)N1CCCC1
inactive: [7] 106 % of control | [8] 101 % of control | [9] 102 % of control | [10] 101 % of control | [11] 112 % of control | [12] 117 % of control

COc1cc(C=Nc2cc(Cl)c(OC)c(Cl)c2)ccc1N(CCCl)CCCl
inactive: dose: 26.0 mg/kg/injection, schedule: Q01DX001 (ip), vehicle: carboxymethylcellulose (CMC) 121 % of control | dose: 26.0 mg/kg/injection, schedule: Q01DX009 (ip), vehicle: carboxymethylcellulose (CMC) 120 % of control | dose: 29.0 mg/kg/injection, schedule: Q01DX001 (ip), vehicle: carboxymethylcellulose (CMC) 118 % of control | dose: 40.0 mg/kg/injection, schedule: Q01DX009 (ip), vehicle: carboxymethylcellulose (CMC) 94 % of control | dose: 44.0 mg/kg/injection, schedule: Q01DX001 (ip), vehicle: carboxymethylcellulose (CMC) 114 % of control | dose: 150.0 mg/kg/injection, schedule: Q01DX001 (ip), vehicle: carboxymethylcellulose (CMC) 121 % of control | dose: 225.0 mg/kg/injection, schedule: Q01DX001 (ip), vehicle: carboxymethylcellulose (CMC) 122 % of control | dose: 300.0 mg/kg/injection, schedule: Q01DX001 (ip), vehicle: carboxymethylcellulose (CMC) 122 % of control

COc1cccc(C=Nc2ccc(N(C)C)cc2)c1O.COc1cccc(C=Nc2ccc(N(C)C)cc2)c1O.[Co]
inactive: [13] 88 % of control | [2] 88 % of control | [4] 98 % of control

CCCCOC(=O)C(C(=O)OCCCC)(C(=O)OCCCC)C(C(=O)OCCCC)(C(=O)OCCCC)C(=O)OCCCC
inactive: dose: 50.0 mg/kg/injection, schedule: Q01DX001 (ip), vehicle: saline 101 % of control | dose: 100.0 mg/kg/injection, schedule: Q01DX001 (ip), vehicle: saline 111 % of control | dose: 200.0 mg/kg/injection, schedule: Q01DX001 (ip), vehicle: saline 104 % of control

O=C(O)COc1cc(F)c(Cl)cc1Cl
inactive: [14] 100 % of control | [15] 90 % of control

O=C1/C(=C\c2cccc3ccccc23)N2CCC1CC2
inactive: [16] 100 % of control | [17] 96 % of control | [18] 104 % of control

O=C(/C=C/c1ccc(O)cc1)c1ccccc1
inactive: [1] 102 % of control | [2] 109 % of control | [3] 108 % of control | [4] 102 % of control | [5] 102 % of control | [6] 98 % of control

COC(=O)c1ccccc1NC(=O)c1cccc(F)c1
inactive: [14] 95 % of control | [15] 105 % of control | dose: 400.0 mg/kg/injection, schedule: Q01DX009 (ip), vehicle: Klucel (hydroxypropylcellulose) (HPC) 103 % of control

O=C1/C(=C\c2cccc3ccccc23)COC/C1=C/c1cccc2ccccc12
inactive: [7] 93 % of control | [9] 97 % of control | [11] 98 % of control

CC(=O)Nc1ccc(-c2ccc(C)cc2)cc1
inactive: [2] 104 % of control | [4] 106 % of control | [6] 95 % of control

NC(=O)CNCCS(=O)(=O)O
inactive: [7] 101 % of control | [8] 97 % of control | [9] 107 % of control | [10] 97 % of control | [11] 101 % of control | [12] 100 % of control

COc1ccc(N=NN(C)C)cc1
inactive: [19] 98 % of control | [20] 100 % of control | dose: 12.5 mg/kg/injection, schedule: Q04DX003 (ip), vehicle: saline with Tween-80 107 % of control | dose: 18.75 mg/kg/injection, schedule: Q01DX001 (ip), vehicle: saline with Tween-80 107 % of control | dose: 25.0 mg/kg/injection, schedule: Q01DX009 (ip), vehicle: saline with Tween-80 100 % of control | dose: 25.0 mg/kg/injection, schedule: Q04DX003 (ip), vehicle: saline with Tween-80 108 % of control | dose: 37.5 mg/kg/injection, schedule: Q01DX001 (ip), vehicle: saline with Tween-80 108 % of control | dose: 50.0 mg/kg/injection, schedule: Q01DX009 (ip), vehicle: saline with Tween-80 104 % of control | [13] 115 % of control | [2] 108 % of control

c1cc[c]([Sn]([c]2ccccc2)([c]2ccccc2)[n]2cccc2)cc1
inactive: dose: 3.13 mg/kg/injection, schedule: Q01DX009 (ip), vehicle: saline with Tween-80 98 % of control | [19] 102 % of control | [20] 100 % of control | [1] 94 % of control

CN(C)CCCOc1c2ccccc2cc2ccccc12
inactive: dose: 1.0 mg/kg/injection, schedule: Q01DX015 (ip), vehicle: carboxymethylcellulose (CMC) 92 % of control | dose: 2.0 mg/kg/injection, schedule: Q01DX015 (ip), vehicle: carboxymethylcellulose (CMC) 92 % of control | dose: 4.0 mg/kg/injection, schedule: Q01DX015 (ip), vehicle: carboxymethylcellulose (CMC) 92 % of control | dose: 8.0 mg/kg/injection, schedule: Q01DX015 (ip), vehicle: carboxymethylcellulose (CMC) 104 % of control and 90 % of control | dose: 16.0 mg/kg/injection, schedule: Q01DX015 (ip), vehicle: carboxymethylcellulose (CMC) 98 % of control

O=C(NNC(=O)c1cccc2ccccc12)c1cc(Br)ccc1Br
inactive: [8] 97 % of control | [10] 87 % of control | [12] 100 % of control

CCCCCCCCCCCCCCCCCCNC(=S)NCCCCCCCCCCCCCCCC
inactive: dose: 55.0 mg/kg/injection, schedule: Q01DX Z (ip), vehicle: methylcellulose (MC) 123 % of control | dose: 83.0 mg/kg/injection, schedule: Q01DX Z (ip), vehicle: methylcellulose (MC) 106 % of control | dose: 125.0 mg/kg/injection, schedule: Q01DX Z (ip), vehicle: methylcellulose (MC) 104 % of control

Cc1cccc(C2=N/C(=C\c3ccc4c(c3)OC(O)O4)C(=O)O2)c1 (configuration not stated)
inactive: [16] 97 % of control | [17] 104 % of control | [18] 104 % of control

Cc1nc(-c2ccccc2)c(-c2ccccc2)[nH]1
inactive: dose: 50.0 mg/kg/injection, schedule: Q01DX009 (ip), vehicle: Klucel (hydroxypropylcellulose) (HPC) 99 % of control | dose: 66.0 mg/kg/injection, schedule: Q01DX009 (ip), vehicle: Klucel (hydroxypropylcellulose) (HPC) 113 % of control | [14] 111 % of control | [21] 101 % of control | dose: 150.0 mg/kg/injection, schedule: Q01DX009 (ip), vehicle: Klucel (hydroxypropylcellulose) (HPC) 92 % of control | [22] 101 % of control

COC(=O)C(C)NC(=O)CNC(=O)CNC(=O)OCc1ccccc1 (configuration not stated)
inactive: [21] 97 % of control | [22] 100 % of control | [23] 95 % of control

CS(=O)(=O)Oc1c(Cl)c(Cl)c(OS(C)(=O)=O)c(Cl)c1Cl
inactive: dose: 100.0 mg/kg/injection, schedule: Q01DX001 (ip), vehicle: carboxymethylcellulose (CMC) 101 % of control | dose: 200.0 mg/kg/injection, schedule: Q01DX001 (ip), vehicle: carboxymethylcellulose (CMC) 92 % of control | dose: 400.0 mg/kg/injection, schedule: Q01DX001 (ip), vehicle: carboxymethylcellulose (CMC) 98 % of control

CN(C)CC1CCCCC1=O (configuration not stated)
inactive: [1] 97 % of control | [21] 102 % of control | [8] 103 % of control | [3] 96 % of control | [22] 102 % of control | [10] 110 % of control | [23] 97 % of control | [12] 103 % of control
